ChEMBL document CHEMBL1130737, “Inhibitors of acyl-CoA:cholesterol O-acyltransferase (ACAT) as hypocholesterolemic agents: synthesis and structure-activity relationships of novel series of sulfonamides, acylphosphonamides and acylphosphoramidates” (Bioorg Med Chem Lett, 1998)
pIC50: −log10 of the molar value. Blank lines part the entries; values can stand above or below the compound they belong to.

Key:
[1] = system: Rattus norvegicus; assay: In vivo percent change in plasma cholesterol level was measured at a dose of 30 mg/Kg in rat and expressed as deltaTC; p < 0.01; format: functional
[2] = molecular target: T1, Acyl-CoA:cholesterol acyltransferase (Oryctolagus cuniculus, UniProt Q95214); assay: In vitro inhibition of ACAT by incubation with [1-14C]oleolyl-CoA and intestinal microsomes isolated from cholesterol-fed rabbits.; parameters: species or system Intestine
T1 sequence (Q95214 whole entry): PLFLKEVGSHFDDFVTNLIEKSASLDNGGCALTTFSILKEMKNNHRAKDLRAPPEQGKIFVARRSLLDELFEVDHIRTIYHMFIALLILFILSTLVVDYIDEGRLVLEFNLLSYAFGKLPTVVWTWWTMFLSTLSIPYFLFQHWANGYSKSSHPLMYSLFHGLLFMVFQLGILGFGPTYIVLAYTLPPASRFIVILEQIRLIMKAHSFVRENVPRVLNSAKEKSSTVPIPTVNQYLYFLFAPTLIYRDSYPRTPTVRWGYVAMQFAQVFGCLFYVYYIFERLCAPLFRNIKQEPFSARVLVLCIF

[3] = system: Rattus norvegicus; assay: In vivo percent change in plasma cholesterol level was measured at a dose of 30 mg/Kg in rat and expressed as deltaTC; p < 0.05; format: functional
[4] = system: Rattus norvegicus; assay: In vivo percent change in plasma cholesterol level was measured at a dose of 10 mg/Kg in rat and expressed as deltaTC; not significant; format: functional
[5] = system: Rattus norvegicus; assay: In vivo percent change in plasma cholesterol level was measured at a dose of 1 mg/Kg in rat and expressed as deltaTC; not significant; format: functional
[6] = system: Rattus norvegicus; assay: In vivo percent change in plasma cholesterol level was measured at a dose of 30 mg/Kg in rat and expressed as deltaTC; not significant; format: functional
[7] = system: Rattus norvegicus; assay: In vivo percent change in plasma cholesterol level was measured at a dose of 30 mg/Kg in rat and expressed as deltaTC; p < 0.001; format: functional
[8] = system: Rattus norvegicus; assay: In vivo percent change in plasma cholesterol level was measured at a dose of 1 mg/Kg in rat and expressed as deltaTC; p < 0.05; format: functional

Structure (SMILES): CCCCCCCCCCCCCCOC(=O)CS(=O)(=O)Nc1c(C(C)C)cccc1C(C)C
DeltaTC [1]: -45%

Structure (SMILES): COP(=O)(Cc1c(C(C)C)cccc1C(C)C)NC(=O)Cc1c(C(C)C)cc(C(C)C)cc1C(C)C (stereo not drawn)
pIC50 [2]: 5.92 | DeltaTC [4]: -2%

Structure (SMILES): COP(=O)(NC(=O)Cc1c(C(C)C)cc(C(C)C)cc1C(C)C)Oc1c(C(C)C)cc(Cl)cc1C(C)C (stereo not drawn)
pIC50 [2]: < 5.30 | DeltaTC [5]: -12%

Structure (SMILES): CCCCCCCCCCCCNC(=O)CS(=O)(=O)Oc1c(C(C)C)cccc1C(C)C
pIC50 [2]: 5.52 | DeltaTC [6]: -3%

Structure (SMILES): CC(C)c1cccc(C(C)C)c1OC(=O)[N-]S(=O)(=O)Oc1c(C(C)C)cccc1C(C)C.[Na+]
pIC50 [2]: 5.28 | DeltaTC [1]: -74%

Structure (SMILES): COP(=O)(Cc1c(C(C)C)cc(C(C)C)cc1C(C)C)NC(=O)Cc1c(C(C)C)cccc1C(C)C (stereo not drawn)
pIC50 [2]: 6.54

Structure (SMILES): COP(=O)(NC(=O)Cc1c(C(C)C)cc(C(C)C)cc1C(C)C)Oc1c(C(C)C)cccc1C(C)C (stereo not drawn)
pIC50 [2]: 5.32

Structure (SMILES): COP(=O)(Cc1c(C(C)C)cc(C(C)C)cc1C(C)C)NC(=O)Cc1c(C(C)C)cc(C(C)C)cc1C(C)C (stereo not drawn)
pIC50 [2]: 6.13 | DeltaTC [4]: -17%

Structure (SMILES): CC(C)c1cc(C(C)C)c(OC(=O)CS(=O)(=O)Nc2c(C(C)C)cccc2C(C)C)c(C(C)C)c1
pIC50 [2]: 5.55 | DeltaTC [6]: -19%

Structure (SMILES): CC(C)c1cc(C(C)C)c(OS(=O)(=O)CC(=O)Nc2c(C(C)C)cccc2C(C)C)c(C(C)C)c1
pIC50 [2]: 8.15 | DeltaTC [1]: -60%

Structure (SMILES): CC(C)c1cc(C(C)C)c(CC(=O)NP(=O)(Oc2c(C(C)C)cccc2C(C)C)c2ccccc2)c(C(C)C)c1 (stereo not drawn)
pIC50 [2]: 5.60 | DeltaTC [8]: -25%

Structure (SMILES): CC(C)c1cc(C(C)C)c(NS(=O)(=O)CC(=O)Oc2c(C(C)C)cccc2C(C)C)c(C(C)C)c1
pIC50 [2]: < 6.00 | DeltaTC [1]: -29%

Structure (SMILES): CCCCCCCCCCCCOC(=O)CS(=O)(=O)Nc1c(C(C)C)cccc1C(C)C
DeltaTC [1]: -34%

Structure (SMILES): CCCCCCCCCCCCCCCCCCSC(=O)CS(=O)(=O)Nc1c(C(C)C)cccc1C(C)C
pIC50 [2]: < 5.30 | DeltaTC [6]: -35%

Structure (SMILES): CCCCCCCCN(CCCCCCCC)C(=O)CS(=O)(=O)Nc1c(C(C)C)cccc1C(C)C
DeltaTC [6]: -19%

Second part, led by results:

pIC50 [2]: < 6.00
Structure (SMILES): CCCCCCCCCCOC(=O)CS(=O)(=O)Nc1c(C(C)C)cccc1C(C)C
DeltaTC [3]: -16%

pIC50 [2]: 6.82
Structure (SMILES): CC(C)c1cccc(C(C)C)c1NS(=O)(=O)CC(=O)N(Cc1ccccc1)C(C)C
DeltaTC [1]: -31%

pIC50 [2]: 8.15
Structure (SMILES): CC(C)c1cccc(C(C)C)c1NC(=O)CS(=O)(=O)Oc1c(C(C)C)cccc1C(C)C
DeltaTC [1]: -42%

pIC50 [2]: < 6.00
Structure (SMILES): CC(C)c1cccc(C(C)C)c1NS(=O)(=O)CC(=O)Oc1c(C(C)C)cccc1C(C)C

pIC50 [2]: 5.74
Structure (SMILES): CC(C)c1cccc(C(C)C)c1OS(=O)(=O)CC(=O)NC(c1ccccc1)c1ccccc1
DeltaTC [1]: -43%

pIC50 [2]: 6.00
Structure (SMILES): CCCCCCSC(=O)CS(=O)(=O)Nc1c(C(C)C)cccc1C(C)C

pIC50 [2]: < 6.00
Structure (SMILES): CCCCCCCCOC(=O)CS(=O)(=O)Nc1c(C(C)C)cccc1C(C)C
DeltaTC [6]: -4%

pIC50 [2]: < 6.00
Structure (SMILES): CC(C)c1cccc(C(C)C)c1NS(=O)(=O)CC(=O)NCC1(c2ccccc2)CCCC1

pIC50 [2]: 6.46
Structure (SMILES): CC(C)c1cccc(C(C)C)c1NC(=O)CS(=O)(=O)Nc1c(C(C)C)cccc1C(C)C
DeltaTC [7]: -51%

pIC50 [2]: 7.14
Structure (SMILES): CCCCCCCCCCCCSC(=O)CS(=O)(=O)Nc1c(C(C)C)cccc1C(C)C
DeltaTC [1]: -71%

pIC50 [2]: < 6.00
Structure (SMILES): CCCCCCOC(=O)CS(=O)(=O)Nc1c(C(C)C)cccc1C(C)C
DeltaTC [6]: -5%

pIC50 [2]: < 6.00
Structure (SMILES): COc1cc(OC)c(OC(=O)CS(=O)(=O)Nc2c(C(C)C)cccc2C(C)C)c(OC)c1
DeltaTC [6]: -6%

pIC50 [2]: 6.49
Structure (SMILES): CCCCCCCCCCCCNC(=O)CS(=O)(=O)Nc1c(C(C)C)cccc1C(C)C
DeltaTC [1]: -29%

pIC50 [2]: < 6.00
Structure (SMILES): CCOC(=O)CS(=O)(=O)Nc1c(C(C)C)cccc1C(C)C
DeltaTC [6]: 2%

pIC50 [2]: 6.89
Structure (SMILES): CCCCCCCCCCSC(=O)CS(=O)(=O)Nc1c(C(C)C)cccc1C(C)C

pIC50 [2]: 6.82
Structure (SMILES): CCCCCCCCSC(=O)CS(=O)(=O)Nc1c(C(C)C)cccc1C(C)C
DeltaTC [3]: -32%

pIC50 [2]: < 5.30
Structure (SMILES): CCCCCCNC(=O)CS(=O)(=O)Nc1c(C(C)C)cccc1C(C)C
DeltaTC [3]: -16%

pIC50 [2]: < 4.30
Structure (SMILES): CC(C)c1cccc(C(C)C)c1NS(=O)(=O)CC(=O)Sc1c(C(C)C)cccc1C(C)C
DeltaTC [6]: -16%

pIC50 [2]: 7.44
Structure (SMILES): CCCCCCCCCCCCCCSC(=O)CS(=O)(=O)Nc1c(C(C)C)cccc1C(C)C
DeltaTC [1]: -23%

pIC50 [2]: 7.68
Structure (SMILES): CCCCCCCCCCCCC(C)OC(=O)CS(=O)(=O)Nc1c(C(C)C)cccc1C(C)C (stereo not drawn)
DeltaTC [7]: -39%

pIC50 [2]: 4.92
Structure (SMILES): CC(C)c1cc(C(C)C)c(CC(=O)NS(=O)(=O)Oc2c(C(C)C)cccc2C(C)C)c(C(C)C)c1 [AVASIMIBE]
DeltaTC [1]: -73%
